Source: patent publication US8716558B2, “Method of altering glycosylation of proteins in response to nojirimycin glucuronide in a plant cell expressing glucuronidase” (Marker Gene Technologies, Inc., priority 1999, dated 2014)

Tests used:
[1] = test system: LFY::luc transformed Arabidopsis thaliana ecotype Columbia; experiment: Tissue selective ablation of meristem floral initiator cells; format: in vivo; conditions: 5 mM spray in 0.01% triton X-100, 2 times per day, 7-20 days
Source text: To test for induction of sterility and prevention of cross-pollination of recombinant plants, Arabiposis thaliana ecotype Columbia are transformed with a plasmid construct containing an LEAFY promoter (LFY) driven firefly luciferase (luc) gene by standard leaf disk techniques (Horsch, et al., 1988). The 2.3 kb BamHI fragment spanning the LFY promoter (Blazquez, et al., 1997) is inserted in front of the luc gene in plasmid pGL3 (available from Promega Corp., Madison, Wis.) using the BglII site. Transgenic plants are generated using the vacuum-filtration method of Berthold, et al. (Berthold, et al., 1993). Regenerated kanamycin-resistant T1 plants carrying LFY::luc are grown up in a greenhouse to allow seed to set. T2 seed of strongly expressing T1 lines are grown in sterile culture on MS medium containing kanamycin at 20° C. for 6 to 10 days in 16 hours light: 8 hours dark cycles and afterward in 12 hour light: 12 hour dark cycles. Plants are treated by spray application to the upper leaves and apical shoot sections, with 5 mM D-luciferin-bromoxynil in 0.01% aqueous triton X-100, 2 times per day, beginning on day 4, for a period of 7-20 days.

[2] = test system: 50/50 co-culture of NIH/3T3 and CRE BAG 2 cells; experiment: Selective ablation, ONPG turnover by remaining cells; format: cell-based; conditions: 15 μg/ml
Description: (§1) NIH/3T3, CRE BAG 2, or a 50/50 mixture of both cell lines (in co-culture) (Total cell density=6×10^4 cells each) were plated in […]. 12 tissue culture treated glass cover slips were added to each plate, and the cells were allowed to grow in an humidified CO2-incubator (37° C.) for 24 hours. Half the cover slips from each plate were then transferred to separate plates. Cells were treated with 15 μg/ml cycloheximide ? -D-galactopyranoside described in Example 1 (M0147) in media for 14 hours then given fresh media (DME with 10% FCS) for 10 hours. This treatment was repeated twice more, the cover slips were removed from both the M0147 treated and untreated 60 mm plates and placed in 12 well plates. To give an indication of the number of β-galactosidase expressing CREBAG2 cells remaining on the cover slips, the cover slips were incubated with the β-galactosidase substrate ONPG, whose turnover can be measured by the change in absorbance at 420 nm. The cells were rinsed with PBS, then 1 ml of 3.5 mM ONPG in HBSS was added to each well. After 4 hours incubation at 37° C., the solution was removed from each well and the absorbance was measured at 420 nm.

CRE BAG 2 cells = experiment: as above; format: cell-based; conditions: 15 μg/ml, 14 hours, three treatments, ONPG turnover 4 hours
Description: as §1

NIH/3T3 cells [3] = experiment: as above; format: cell-based; conditions: 15 μg/ml, 14 hours, three treatments, ONPG turnover 4 hours
Description: as §1

[4] = test system: CRE BAG 2 cells (β-galactosidase expressing); experiment: Doubling time in DME:F12 with a defined sugar, MTT assay; format: cell-based, Mouse; conditions: CRE BAG 2, named sugar as only sugar
Description: (§2) Mouse fibroblast cell line NIH/3T3 and its β-galactosidase expressing derivative CREBAG 2 available from ATCC, Manassas, Va., were grown in media containing either only glucose or only lactose to show the ability to select for β-galactosidase expressing cells by providing only lactose as a carbon source, which must be cleaved into glucose and galactose by β-galactosidase before it can be utilized by the cell.
(§3) 1:1 Dulbecco's Modified Eagles medium (DME): Ham F12 medium was prepared according to standard formula (Freshney) and with the omission of D-glucose, which was replaced by an equimolar quantity of D-lactose. Cell lines were plated in 2, 12 well plates for each cell type, at a density of 5×10^3 cells per well, in DME containing 10% Calf Serum (CS), and incubated for 4 hours at 37° C. to allow settling and attachment to the plate. Media was then removed and cells were washed once with phosphate buffered saline solution (PBS). […]
(§4) For the MTT assay, cells are incubated with the MTT reagent, which is turned over by live cells to a purple MTT formazan product. […] Absorbence of each sample is measured against a DMSO blank at 570 nm.

NIH/3T3 cells [5] = experiment: as above; format: cell-based, Mouse; conditions: NIH/3T3, named sugar as only sugar
Description: as §2, §3, §4

X. campestris XN1 = experiment: Differential growth of non-transformed bacteria under PPT block; format: cell-based, Xanthomonas campestris; conditions: M9+0.2% glucose+PPT (20 μg/mL)+M0182 (63 μg/mL)
[6] = test system: X. campestris CL355 (ampicillin resistant, plasmid pGC9114); experiment: Differential growth of amp-containing bacteria under PPT block; format: cell-based, Xanthomonas campestris; conditions: M9+0.2% glucose+PPT (20 μg/mL)+M0182 (63 μg/mL)

N#Cc1cc(Br)c(OCC2SC(c3nc4ccc(O)cc4s3)=N[C@H]2C(=O)O)c(Br)c1 (stereo partly drawn) [D-luciferin-bromoxynil, D-2-(6′-Hydroxybenzothiazol-2′-yl)-D2-5-(2,6-dibromo-4-cyanophenoxy)methylthiazoline-4-carboxylic acid]
floral initiation in apical shoot meristem [1]: no transition to floral initiation

CC1CC(C)C(=O)[C@H]([C@H](CC2CC(=O)NC(=O)C2)OC2OC(CO)C(O)C(O)C2O)C1 (stereo partly drawn) [Example M0147, 3-[2-(3,5-dimethyl-2-oxocyclohexyl)-2-O-(β-D-galactopyranosyl)ethyl]glutarimide]
β-galactosidase activity (number of CREBAG2 cells) in co-culture ([2]; to nearly that of NIH/3T3 cells alone): decrease of β-galactosidase activity | Growth (abs @ 420 nm) ([2]; Coculture, 14 hours, three treatments, ONPG turnover 4 hours): .133 | Growth (abs @ 420 nm) (CRE BAG 2 cells): .450 | Growth (abs @ 420 nm) (NIH/3T3 cells [3]): .100

OC[C@H]1O[C@@H](O[C@H]2[C@H](O)[C@@H](O)C(O)O[C@@H]2CO)[C@H](O)[C@@H](O)[C@H]1O (stereo partly drawn) [lactose, D-lactose]
Doubling Times (Days) of Cells Grown in DME:F12 with 10% dCS [4]: 1.13 days | Doubling Times (Days) of Cells Grown in DME:F12 with 10% dCS (NIH/3T3 cells [5]): 0.87 days

Phenylacetyl-cephalosporanic acid-glutamate [Example M0182]
final growth, Abs. (600 nm) (X. campestris XN1): 0.101 | final growth, Abs. (600 nm) [6]: 0.471
